In assay [1] the test system is human neutrophils. The assay is described as follows: Chemotaxis assay in human neutrophils. Format: cell-based. The conditions noted are these: Neutrophil, read-out: EC50 Chemotaxis.
In assay [2] the test system is wild-type nontransfected HL-60 cells. Nature of the assay: Ca2+ mobilization in wild-type nontransfected HL-60 cells. The conditions noted are these: control cells which do not express FPRs.
Assay [3] concerns human neutrophils. The assay is described as follows: Ca2+ mobilization in human neutrophils. Type of assay: cell-based. The conditions noted are these: Neutrophil, read-out: EC50 Ca2+ mobilization.

In the case of `COc1cccc(Cc2cc(C)nn(CC(=O)Nc3ccc4c(c3)OCO4)c2=O)c1` [14m, N-Benzo[1,3]dioxol-5-yl-2-[5-(3-methoxybenzyl)-3-methyl-6-oxo-6H-pyridazin-1-yl]-acetamide], the EC50 with human neutrophils [1] amounted to 1.2 ± 0.6 µM.
Regarding `COc1cccc(Cc2cc(C)nn(CC(=O)Nc3ccc(Br)cc3)c2=O)c1` [14a, N-(4-Bromophenyl)-2-[5-(3-methoxybenzyl)-3-methyl-6-oxo-6H-pyridazin-1-yl]-acetamide], in assay [2], the “Ca2+ flux response in wild-type (nontransfected, undifferentiated) HL-60 cells” value is reported as “no response was observed”.
Take `COc1cccc(Cc2cc(C)nn(CC(=O)Nc3ccc([N+](=O)[O-])cc3)c2=O)c1` [14p, 2-[5-(3-Methoxybenzyl)-3-methyl-6-oxo-6H-pyridazin-1-yl]-N-(4-nitrophenyl)-acetamide]: the EC50 is 1.9 ± 0.6 µM with human neutrophils [1] and 21.7 ± 4.2 µM in the assay on human neutrophils [3].
